According to patent US11390617B2, “Methods of treating non-Hodgkin lymphoma using 2-(2,6-dioxopiperidin-3-yl)-4-((2-fluoro-4-((3-morpholinoazetidin-1-yl)methyl)benzyl)amino)isoindoline-1,3-dione” (Celgene Corporation, priority 2019, dated 2022):

Columns and labels:
Assay in all cases: NHL cell line viability/apoptosis 384-well flow cytometry assay
Format in all cases: cell-based
Mino = Mino (MCL), 120 hours
Protocol: (§1) The following exemplary anti-proliferative assay uses exemplary non-Hodgkin lymphoma (NIL) cell lines (including diffuse large B-cell lymphoma (DLBCL), follicular lymphoma (FL), and mantle cell lymphoma (MCL)) (Table 5). The in vitro growth inhibitory activity of Compound 1 described herein was evaluated using a 384-well flow cytometry assay.
(§2) The cell lines in Table 5 were plated in 384-well flat bottom plates and assessed with increasing concentrations of compound ranging from 0.00015 to 10 μM or dimethyl sulfoxide (DMSO) control. The final concentration of DMSO was 0.1% (v/v). Following the addition of Compound 1 or DMSO and incubation for 120 hours, cell number and cell death were analyzed by flow cytometry (Attune®, Thermo Fisher) using Annexin V and the live-cell impermeant DNA dye, DRAQ7. Phosphatidylserine translocates from the inner layer to the outer layer of the cell membrane early in apoptosis and Annexin V binds to the exposed phosphatidylserine found on the surface of an apoptotic cell. The vital dye DRAQ7 is excluded by intact live cells and only stains cells that have died as a result of apoptosis or necrosis.
(§3) Flow cytometry data analysis was then performed using the Flow Jo_v10 software to determine the number of viable cells (Annexin V and DRAQ7 double negative staining cells) and percentage of apoptotic cells (Annexin V positive cells) for each condition. The live cell count for every concentration was normalized to the DMSO control (considered as 100%) to calculate the percentage of viable cells remaining after treatment and graphed using GraphPad Prism 7.03. The IC50 (50% inhibitory concentration) and Emax (maximum efficacy achieved) values were then calculated by performing nonlinear regression curve fitting using log(inhibitor) vs. normalized response—variable slope analysis on GraphPad Prism 7.03. Area under the curve (AUC) was calculated by performing area under curve analysis on GraphPad Prism 7.03. Similarly, for apoptosis analysis, the percentage of apoptosis combining both “early” (Annexin V positive and DRAQ7 negative) and “late” apoptosis (Annexin V and DRAQ7 positive) cell gates relative to DMSO was graphed using GraphPad Prism 7.03. The AUC, EC50 (concentration of Compound 1 that produces half-maximal apoptosis response) and Ymax (maximal percentage of apoptosis achieved) values from apoptosis curves were calculated by performing area under curve analysis and nonlinear regression curve fitting using log(agonist) vs. normalized response—Variable slope analysis on GraphPad Prism 7.03.
(§4) In Table 6, dose-response proliferation curves for the panel of NHL cell lines and non-linear curve-fit regression were used to determine IC50, AUC, and Emax for % viable cells (Emax for viability varies between 100 at low doses and 0 at high doses, which corresponds to inhibition of all viable cells), and dose-response apoptosis curves were used to determine the EC50, AUC, and Ymax for % apoptosis (Ymax for apoptosis varies from 0 at low doses and 100 at higher doses which corresponds to death of all cells). Tumor cells were exposed to serial dilutions (0.00015 to 10 μM) of Compound 1 or dimethyl sulfoxide (DMSO) control for 5 days. Viability and apoptosis for all cell lines was determined by Annexin V/[…] flow cytometry.

SU-DHL-8 = SU-DHL-8 (DLBCL), 120 hours
Protocol: as §1, §2, §3, §4

CARNAVAL = CARNAVAL (DLBCL), 120 hours
Protocol: as §1, §2, §3, §4

Toledo = Toledo (DLBCL), 120 hours
Protocol: as §1, §2, §3, §4

SU-DHL-16 = SU-DHL-16 (DLBCL), 120 hours
Protocol: as §1, §2, §3, §4

TMD8 = TMD8 (DLBCL), 120 hours
Protocol: as §1, §2, §3, §4

RIVA = RIVA (DLBCL), 120 hours
Protocol: as §1, §2, §3, §4

RC-K8 = RC-K8 (DLBCL), 120 hours
Protocol: as §1, §2, §3, §4

Rec-1 = Rec-1 (MCL), 120 hours
Protocol: as §1, §2, §3, §4

U-2946 = U-2946 (DLBCL), 120 hours
Protocol: as §1, §2, §3, §4

OCI-LY10 = OCI-LY10 (DLBCL), 120 hours
Protocol: as §1, §2, §3, §4

WILL-2 = WILL-2 (DLBCL), 120 hours
Protocol: as §1, §2, §3, §4

[1] = Homo sapiens, read-out: IC50 (% Viable Cells)
[2] = read-out: IC50 (% Viable Cells)

O=C1CC[C@H](N2C(=O)c3cccc(NCc4ccc(CN5CC(N6CCOCC6)C5)cc4F)c3C2=O)C(=O)N1 [Compound 1, (S)-2-(2,6-dioxopiperidin-3-yl)-4-((2-fluoro-4-((3-morpholinoazetidin-1-yl)methyl)benzyl)amino)isoindoline-1,3-dione]
EC50 (Mino; Homo sapiens): 0.00205 µM | IC50 (Mino; [1]): 0.00578 µM | AUC (% Viable Cells) (Mino): 62.67 | AUC (Apoptosis) (Mino): 968.2 | Emax (% Viable Cells) (Mino): 5.638% | Ymax (Apoptosis) (Mino): 97.04% | EC50 (SU-DHL-8; Homo sapiens): 0.603 µM | IC50 (SU-DHL-8; [1]): 0.486 µM | AUC (% Viable Cells) (SU-DHL-8): 119.5 | AUC (Apoptosis) (SU-DHL-8): 363.2 | Emax (% Viable Cells) (SU-DHL-8): 2.081% | Ymax (Apoptosis) (SU-DHL-8): 85.44% | AUC (% Viable Cells) (CARNAVAL): 110.6 | AUC (Apoptosis) (CARNAVAL): 708.7 | EC50 (CARNAVAL): 0.152 µM | Emax (% Viable Cells) (CARNAVAL): 7.134% | Ymax (Apoptosis) (CARNAVAL): 77.84% | IC50 (CARNAVAL; [2]): 0.00912 µM | EC50 (Toledo; Homo sapiens): 0.223 µM | IC50 (Toledo; [1]): 0.002 µM | AUC (% Viable Cells) (Toledo): 112.3 | AUC (Apoptosis) (Toledo): 231.4 | Emax (% Viable Cells) (Toledo): 8.56% | Ymax (Apoptosis) (Toledo): 27.5% | EC50 (SU-DHL-16; Homo sapiens): 0.662 µM | IC50 (SU-DHL-16; [1]): 0.154 µM | AUC (% Viable Cells) (SU-DHL-16): 149.7 | AUC (Apoptosis) (SU-DHL-16): 492.6 | Emax (% Viable Cells) (SU-DHL-16): 7.137% | Ymax (Apoptosis) (SU-DHL-16): 60.79% | EC50 (TMD8; Homo sapiens): 0.00617 µM | IC50 (TMD8; [1]): 0.00246 µM | AUC (% Viable Cells) (TMD8): 4.187 | AUC (Apoptosis) (TMD8): 963.3 | Emax (% Viable Cells) (TMD8): 0.245% | Ymax (Apoptosis) (TMD8): 97.2% | AUC (% Viable Cells) (RIVA): 452.6 | AUC (Apoptosis) (RIVA): 242.8 | EC50 (RIVA): 0.0177 µM | Emax (% Viable Cells) (RIVA): 36.65% | Ymax (Apoptosis) (RIVA): 27.92% | IC50 (RIVA; [2]): 0.114 µM | EC50 (RC-K8; Homo sapiens, RCK8): 0.0743 µM | IC50 (RC-K8; Homo sapiens, RCK8, read-out: IC50 (% Viable Cells)): 0.00337 µM | AUC (% Viable Cells) (RC-K8): 115.7 | AUC (Apoptosis) (RC-K8): 349.2 | Emax (% Viable Cells) (RC-K8): 10.06% | Ymax (Apoptosis) (RC-K8): 26.31% | EC50 (Rec-1; Homo sapiens, Rec1): 0.00926 µM | IC50 (Rec-1; Homo sapiens, Rec1, read-out: IC50 (% Viable Cells)): 0.032 µM | AUC (% Viable Cells) (Rec-1): 281.8 | AUC (Apoptosis) (Rec-1): 508.5 | Emax (% Viable Cells) (Rec-1): 21.04% | Ymax (Apoptosis) (Rec-1): 57.27% | AUC (% Viable Cells) (U-2946): 45.47 | AUC (Apoptosis) (U-2946): 762.6 | EC50 (U-2946): 0.192 µM | Emax (% Viable Cells) (U-2946): 0.4821% | Ymax (Apoptosis) (U-2946): 93.34% | IC50 (U-2946; [2]): 0.0046 µM | EC50 (OCI-LY10; Homo sapiens): 0.32 µM | IC50 (OCI-LY10; [1]): 0.0142 µM | AUC (% Viable Cells) (OCI-LY10): 125.3 | AUC (Apoptosis) (OCI-LY10): 188.9 | Emax (% Viable Cells) (OCI-LY10): 10.16% | Ymax (Apoptosis) (OCI-LY10): 22.31% | AUC (% Viable Cells) (WILL-2): 17.1 | AUC (Apoptosis) (WILL-2): 916.9 | EC50 (WILL-2): 0.0897 µM | Emax (% Viable Cells) (WILL-2): 0.03115% | Ymax (Apoptosis) (WILL-2): 99.43% | IC50 (WILL-2; [2]): 0.00236 µM
